# Measured values taken from patent publication US8227414B2 ([…].R.L., priority 2005, dated 2012).
# Read-outs that look alike come from different tables or passages of the source. Ends that are not written are not given here. Peptide text beside a SMILES is read from it.
# How the values were obtained:
# mouse vas deferens = assay: Inhibition of the twitch induced by electrical stimulation of mouse vas deferens; format: cell-based; details: for Inhibition of the twitch induced by electric stimulation, Antagonist pA2: against N/OFQ; for Functional behaviour in mouse vas deferens: compared with N/OFQ maximal effect
# Description: The compounds were tested in vitro on Hamster oocytes membranes expressing the human recombinant NOP receptor (CHOhNoP) (receptor binding experiments and GTP?S binding stimulation experiments) and on the mouse vas deferens after electrical stimulation.
# [1] = system: vas deferens of knockout mice for the NOP receptor (NOP−/−); assay: Electrically stimulated vas deferens from NOP receptor knockout mice; format: cell-based, mouse; details: Table 2
# [2] = target: T1, human recombinant NOP receptor (Homo sapiens, UniProt P41146); assay: Stimulation of GTP?S binding on CHOhNOP membranes; format: biochemical; details: for Functional behaviour in GTP?S binding: compared with N/OFQ maximal effect
# T1 construct: expressed in transfected cells; host or cells: CHO cells (CHOhNOP), membranes
# [3] = target: T2, human recombinant opioid receptor mu (MOP) (Homo sapiens, UniProt P35372); assay: Receptor binding on CHO membranes, [3H]-Diprenorphine
# T2 construct: expressed in transfected cells; host or cells: CHO cells, membranes
# [4] = target: T3, human recombinant opioid receptor delta (DOP) (Homo sapiens, UniProt P41143); assay: as above
# T3 construct: expressed in transfected cells; host or cells: CHO cells, membranes
# [5] = Metabolic stability in mouse plasma; format: in vitro ADME; details: for half-life at 6 μg/μl: male, Swiss, mouse, plasma, pH 7.4, mouse plasma; for Plasma T½ compared to N/OFQ: mouse plasma
# Description: (§1) Plasma and brain tissue samples were obtained from male Swiss mice (Morini, Reggio Emilia, Italy, 25-30 g). The animal, sacrificed by ether anesthesia, was perfused with physiological heparin solution injected through a needle placed in the left ventricle. Blood was then withdrawn and was centrifuged at 14000×g for 2 minutes at room temperature. After separation from the pellet, the plasma was aliquoted and stocked at −80° C. After blood withdrawal, the animal was perfused further with a physiological solution for 2 minutes before brain removal. The brain tissue was homogenized in 5 vol. (w/v) of Tris/HCl (50 mM, pH 7.4, 0° C.) with a ultra-Turrax (Janke Kunkel, Staufen, FRG) 3 times for 15 seconds each. The supernatant obtained by centrifugation (3000×g for 15 min at 4° C.) was decanted and then stocked at −80° C.
# (§2) The protein content of the preparations, determined by the Bradford method, as described in Anal. Biochem., 72, 248-254, 1976, was approximately 8 μg/μl for the brain homogenate and 17 μg/μl for the plasma
# (§3) An aliquot of 100 μl solution of each peptide (3 mg/500 μl Tris) was incubated (at a final concentration of […]) with brain homogenate or plasma (450 μl) in a total volume of 1 ml, containing Tris/HCl 50 mM pH 7.4 buffer. Incubation of the aliquots was carried out at 37° C. for various periods up to 240 min. At different incubation times, an aliquot of the solution (100 μl) was removed and the degradation was blocked by addition of 4.5% TFA solution (200 μl). After centrifugation (3000 rpm for 15 minutes) an aliquot (100 μl) of supernatant was injected into RP-HPLC. HPLC analysis was performed in a Kromasil 100-5C18 column (4.6×250 mm) using a Beckman System Gold chromatography system equipped with a variable wave length UV detector.
# (§4) The experimental conditions for elution included a gradient analysis with water (solvent A) and acetonitrile (solvent B), both containing 0.1% TFA, at a flow rate of 0.7 ml/min. The following protocol was used for gradient analysis, selected on the basis of the physico-chemical characteristics of the analyte: linear gradient from 5% to 40% B in 20 minutes; linear gradient from 40% to 60% B in 5 minutes; linear gradient from 60% to 5% B in 5 minutes. The eluate was monitored at 220 nm. The half life (T1/2) was obtained by linear regression with the least square method, diagramming the peak areas of each derivative as a function of the incubation times, using at least five points for each analysis.
# [6] = Metabolic stability in mouse brain homogenate; format: in vitro ADME; details: male, Swiss, pH 7.4, mouse brain homogenate, 37° C., mean±standard deviation, read-out: T½ Brain
# Description: as §1, §2, §3, §4
# [7] = target: T4, human recombinant NOP receptors expressed in HEK293 cells (Homo sapiens, UniProt P41146); details: Okada et al. 2000; cited from earlier work
# T4 construct: host or cells: HEK293 cells
# [8] = target: T1, human recombinant NOP receptor; assay: Receptor binding, displacement of tritiated N/OFQ on CHOhNOP membranes; details: Receptor binding PKi, Table 1; membrane of CHOhNOP cells; tritiated N/OFQ
# mice [9] = assay: Food intake in fed mice; format: in vivo, mouse
# Description: 2) measurement of food intake in fed animals, as described by Rizzi et al. (National Congress of the Italian Society of Neuroscience and joint Italian-Swedish Neuroscience Meetings, Ischia (Napoli) 1-4 Oct. 2005);
# mice [10] = assay: Spontaneous locomotor activity in mice; format: in vivo, mouse
# Description: Control animals received one i.c.v. injection of saline (2 μl/mouse). Each point represents the mean±s.e.m. of at least 4 experiments.
# 3) assay for measurement of spontaneous locomotor activity, as described by Rizzi et al., (Naunyn Schmiedebergs Arch Pharmacol 363, 161-165, 2001.
# [11] = Table 2, wild type (NOP+/+) mice
# [12] = 37° C., mean±standard deviation, read-out: T½ Plasma
# T1 sequence (P41146 whole entry): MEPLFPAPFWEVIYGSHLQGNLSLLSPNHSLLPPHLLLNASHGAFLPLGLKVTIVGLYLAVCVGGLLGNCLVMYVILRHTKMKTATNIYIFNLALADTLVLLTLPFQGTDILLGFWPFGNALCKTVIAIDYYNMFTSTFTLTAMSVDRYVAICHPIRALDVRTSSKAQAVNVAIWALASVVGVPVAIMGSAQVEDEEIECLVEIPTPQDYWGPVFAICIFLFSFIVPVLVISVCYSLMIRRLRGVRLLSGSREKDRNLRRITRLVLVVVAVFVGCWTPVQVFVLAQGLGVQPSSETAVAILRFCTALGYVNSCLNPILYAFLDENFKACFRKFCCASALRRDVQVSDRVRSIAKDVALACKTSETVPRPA
# T4 sequence (P41146 whole entry): as above
# T3 sequence (P41143 whole entry): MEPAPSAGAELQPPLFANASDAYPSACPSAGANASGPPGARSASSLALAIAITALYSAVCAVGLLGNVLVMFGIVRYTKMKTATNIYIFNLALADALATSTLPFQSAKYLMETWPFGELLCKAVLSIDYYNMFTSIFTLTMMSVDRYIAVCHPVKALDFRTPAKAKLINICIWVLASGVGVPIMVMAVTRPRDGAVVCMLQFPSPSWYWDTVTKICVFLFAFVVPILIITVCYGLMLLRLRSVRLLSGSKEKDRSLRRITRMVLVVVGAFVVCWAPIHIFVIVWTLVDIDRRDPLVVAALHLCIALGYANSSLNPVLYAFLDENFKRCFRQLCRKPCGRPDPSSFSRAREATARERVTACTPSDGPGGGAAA
# T2 sequence (P35372 whole entry): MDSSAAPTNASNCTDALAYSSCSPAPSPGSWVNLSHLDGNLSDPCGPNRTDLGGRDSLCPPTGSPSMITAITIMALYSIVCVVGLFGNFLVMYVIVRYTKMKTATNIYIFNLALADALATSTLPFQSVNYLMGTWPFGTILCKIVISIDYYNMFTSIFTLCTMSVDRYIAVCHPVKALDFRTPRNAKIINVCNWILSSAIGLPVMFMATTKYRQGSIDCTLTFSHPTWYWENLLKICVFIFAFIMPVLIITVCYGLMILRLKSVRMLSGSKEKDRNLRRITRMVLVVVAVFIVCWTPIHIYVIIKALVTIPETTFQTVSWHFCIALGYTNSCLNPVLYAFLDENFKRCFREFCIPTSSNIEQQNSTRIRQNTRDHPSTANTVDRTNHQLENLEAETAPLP
compound,measurement,setting,value
[Ac5c^7]N/OFQ-NH2,Emax,mouse vas deferens; Table 4,98 ± 1%
same,pEC50 (CL 95%),mouse vas deferens; Table 4,7.60 (7.40-7.80)
[(aMe)D/L-Val^7]N/OFQ-NH2 [[(aMe)D/L-Val^7]N/OFQ-NH2 (diastereomer 1)],Emax,mouse vas deferens; Table 4,88 ± 1%
same,pEC50 (CL 95%),mouse vas deferens; Table 4,7.26 (7.00-7.52)
[Ac6c^7]N/OFQ-NH2,Emax,mouse vas deferens; Table 4,87 ± 1%
same,pEC50 (CL 95%),mouse vas deferens; Table 4,7.20 (6.86-7.54)
[Deg^7]N/OFQ-NH2,Emax,mouse vas deferens; Table 4,89 ± 2%
same,pEC50 (CL 95%),mouse vas deferens; Table 4,7.91 (7.53-8.27)
[Dpg^7]N/OFQ-NH2,Emax,mouse vas deferens; Table 4,91 ± 4%
same,pEC50 (CL 95%),mouse vas deferens; Table 4,7.90 (7.71-8.11)
[Deg^11]N/OFQ-NH2,Emax,mouse vas deferens; Table 4,87 ± 4%
same,pEC50 (CL 95%),mouse vas deferens; Table 4,7.75 (7.43-7.89)
"DPDPE [[D-Pen^2,D-Pen^5]-Enkephalin, reference compound]",Emax NOP+/+,mouse vas deferens; [11],93 ± 3%
same,pEC50 NOP+/+,mouse vas deferens; [11],8.40
same,Emax NOP−/−,[1],91 ± 5%
same,pEC50 NOP−/−,[1],8.20
"C[C@H](NC(=O)[C@H](CO)NC(=O)[C@H](CCCCN)NC(=O)[C@H](CCCNC(=N)N)NC(=O)C(C)(C)NC(=O)CNC(=O)[C@@H](NC(=O)[C@H](Cc1ccccc1)NC(=O)CNC(=O)CNC(=O)CNCc1ccccc1)[C@@H](C)O)C(=O)N[C@@H](CCCNC(=N)N)C(=O)N[C@@H](CCCCN)C(=O)N[C@@H](CCCNC(=N)N)C(=O)N[C@@H](CCCCN)C(=O)N[C@@H](CC(N)=O)C(=O)N[C@@H](CCC(N)=O)C(N)=O [UFP-111, [Nphe^1,Aib^7,Arg^14,Lys^15]N/OFQ-NH2]",Kb,[2],2.09 nM
same,"Stimulation upon binding GTP?S, Agonist pEC50","[2]; Table 1, membrane of CHOhNOP cells",Inactive
same,Functional behaviour in GTP?S binding,[2],competitive antagonist
same,"Inhibition of the twitch induced by electric stimulation, Agonist pEC50",mouse vas deferens; Table 1,Inactive
same,"Inhibition of the twitch induced by electric stimulation, Antagonist pA2",mouse vas deferens; Table 1,7.46
same,Functional behaviour in mouse vas deferens,mouse vas deferens,competitive antagonist
same,Ki,[3],> 10000 nM
same,Ki,[4],> 10000 nM
same,half-life at 6 μg/μl,[5]; [12],2.28 ± 0.0667 h
same,Plasma T½ compared to N/OFQ,[5],about twice as long
same,half-life at 6 μg/μl,[6],0.183 ± 0.0317 h
[(aMe)D/L-Leu^11]N/OFQ-NH2,Emax,mouse vas deferens; Table 4,91 ± 4%
same,pEC50 (CL 95%),mouse vas deferens; Table 4,7.87 (7.67-8.07)
[Iva^7]N/OFQ-NH2 [[Iva^7]N/OFQ-NH2 (diastereomer 1)],Emax,mouse vas deferens; Table 4,91 ± 4%
same,pEC50 (CL 95%),mouse vas deferens; Table 4,7.83 (7.74-7.92)
"[Arg^14,Lys^15]N/OFQ",Potency relative to N/OFQ,[7],17 fold
[Ac3c^7]N/OFQ-NH2,Emax,mouse vas deferens; Table 4,98 ± 1%
same,pEC50 (CL 95%),mouse vas deferens; Table 4,7.08 (6.82-7.34)
[(aMe)D/L-Leu^7]N/OFQ-NH2 [[(aMe)D/L-Leu^7]N/OFQ-NH2 (diastereomer 1)],Emax,mouse vas deferens; Table 4,84 ± 1%
same,pEC50 (CL 95%),mouse vas deferens; Table 4,7.33 (7.04-7.62)
[(aMe)D/L-Leu^7]N/OFQ-NH2 [[(aMe)D/L-Leu^7]N/OFQ-NH2 (diastereomer 2)],Emax,mouse vas deferens; Table 4,95 ± 2%
same,pEC50 (CL 95%),mouse vas deferens; Table 4,7.12 (7.02-7.22)
"[Nphe1,Arg14,Lys15]N/OFQ-NH2 (XGGFTGARKSARKRKNQ; Nphe1, C-terminal amide; Synthetized. Featured in patent as UFP-101, ref. Calòet al. Br J Pharmacol 136, 303-311, 2002) [reference compound]",pA2 in competition with the endogenous agonist N/OFQ,mouse vas deferens; agonist N/OFQ,6.91
same,pA2 in competition with UFP-112,mouse vas deferens; agonist UFP-112,6.81
[Ac3c^11]N/OFQ-NH2,Emax,mouse vas deferens; Table 4,91 ± 4%
same,pEC50 (CL 95%),mouse vas deferens; Table 4,7.78 (7.62-7.94)
[(aMe)D/L-Val^11]N/OFQ-NH2 [[(aMe)D/L-Val^11]N/OFQ-NH2 (diastereomer 2)],Emax,mouse vas deferens; Table 4,86 ± 4%
same,pEC50 (CL 95%),mouse vas deferens; Table 4,7.83 (7.67-7.99)
"C[C@H](NC(=O)[C@H](CO)NC(=O)[C@H](CCCCN)NC(=O)[C@H](CCCNC(=N)N)NC(=O)C(C)(C)NC(=O)CNC(=O)[C@@H](NC(=O)[C@H](Cc1ccc(F)cc1)NC(=O)CNC(=O)CNC[C@@H](N)Cc1ccccc1)[C@@H](C)O)C(=O)N[C@@H](CCCNC(=N)N)C(=O)N[C@@H](CCCCN)C(=O)N[C@@H](CCCNC(=N)N)C(=O)N[C@@H](CCCCN)C(=O)N[C@@H](CC(N)=O)C(=O)N[C@@H](CCC(N)=O)C(N)=O [UFP-113, [Phe^1?(CH2—NH)Gly^2,(pF)Phe^4,Aib^7,Arg^14,Lys^15]N/OFQ-NH2] (HELM PEPTIDE1{[N[C@H](CNCC(=O)[*:2])Cc1ccccc1].G.[O=C([C@H](Cc1ccc(F)cc1)N[*:1])[*:2]].T.G.[Aib].R.K.S.A.R.K.R.K.N.Q.[am]}$$$$V2.0)",Ki,[8],0.055 nM
same,EC50,[2],0.191 nM
same,Functional behaviour in GTP?S binding,[2],partial NOP receptor agonist
same,Emax,"[2]; read-out: Stimulation upon binding GTP?S, Agonist Emax",79 ± 3%
same,"Inhibition of the twitch induced by electric stimulation, Agonist pEC50",mouse vas deferens; Table 1,Variable agonist effects
same,"Inhibition of the twitch induced by electric stimulation, Antagonist pA2",mouse vas deferens; Table 1,9.28
same,Functional behaviour in mouse vas deferens,mouse vas deferens,partial NOP receptor agonist
same,half-life at 6 μg/μl,[5]; [12],1.83 ± 0.167 h
same,Plasma T½ compared to N/OFQ,[5],about twice as long
same,half-life at 6 μg/μl,[6],0.205 ± 0.0133 h
[Iva^7]N/OFQ-NH2 [[Iva^7]N/OFQ-NH2 (diastereomer 2)],Emax,mouse vas deferens; Table 4,88 ± 3%
same,pEC50 (CL 95%),mouse vas deferens; Table 4,7.62 (7.32-7.92)
[Dpg^11]N/OFQ-NH2,Emax,mouse vas deferens; Table 4,86 ± 3%
same,pEC50 (CL 95%),mouse vas deferens; Table 4,7.53 (7.17-8.04)
"N/OFQ-NH2 (FGGFTGARKSARKLANQ-NH2; UniProt Q13519 130-146, looked up) [reference compound]",Emax,mouse vas deferens,93 ± 2%
[(aMe)D/L-Val^7]N/OFQ-NH2 [[(aMe)D/L-Val^7]N/OFQ-NH2 (diastereomer 2)],Emax,mouse vas deferens; Table 4,95 ± 1%
same,pEC50 (CL 95%),mouse vas deferens; Table 4,7.56 (7.34-7.78)
"CC(C)C[C@H](NC(=O)[C@H](CCCCN)NC(=O)[C@H](CCCNC(=N)N)NC(=O)[C@H](C)NC(=O)[C@H](CO)NC(=O)[C@H](CCCCN)NC(=O)[C@H](CCCNC(=N)N)NC(=O)[C@H](C)NC(=O)CNC(=O)[C@@H](NC(=O)[C@H](Cc1ccccc1)NC(=O)CNC(=O)CNC(=O)[C@@H](N)Cc1ccccc1)[C@@H](C)O)C(=O)N[C@@H](C)C(=O)N[C@@H](CC(N)=O)C(=O)N[C@@H](CCC(N)=O)C(=O)O [N/OFQ, reference compound]","Inhibition of the twitch induced by electric stimulation, Agonist Emax",mouse vas deferens; Table 1,−84 ± 3%
same,"Inhibition of the twitch induced by electric stimulation, Agonist pEC50",mouse vas deferens; Table 1,7.39
same,Emax NOP+/+,mouse vas deferens; [11],84 ± 4%
same,Hyperphagic effects in NOP−/− mice,mice [9]; NOP−/− mice,absent
same,Effect on food intake,"mice [9]; fed mice, equi-effective doses",significant increase
same,Time after i.c.v. injection at which locomotor effect ended,mice [10]; 10 nmol i.c.v.,60 min
same,Effect on spontaneous locomotor activity,"mice [10]; i.c.v., N/OFQ 10 nmol, UFP-112 0.1 nmol",inhibited the locomotor activity
same,half-life at 6 μg/μl,[5]; [12],1.07 ± 0.0167 h
same,half-life at 6 μg/μl,[5]; read-out: Half life in the plasma (converted),~1 h
same,half-life at 6 μg/μl,[6],~0.05 h
[Ac6c^11]N/OFQ-NH2,Emax,mouse vas deferens; Table 4,89 ± 4%
same,pEC50 (CL 95%),mouse vas deferens; Table 4,7.79 (7.53-8.05)
[Ac5c^11]N/OFQ-NH2,Emax,mouse vas deferens; Table 4,89 ± 4%
same,pEC50 (CL 95%),mouse vas deferens; Table 4,8.08 (7.93-8.23)
[(aMe)D/L-Val^11]N/OFQ-NH2 [[(aMe)D/L-Val^11]N/OFQ-NH2 (diastereomer 1)],Emax,mouse vas deferens; Table 4,93 ± 2%
same,pEC50 (CL 95%),mouse vas deferens; Table 4,7.71 (7.37-8.05)
